Structures can show the parent of a compound that is named as a salt. Marks after values point to notes of the source that are not given here.
Experiments:
Assay type in all cases: physicochemical
[1] = Heating experiments and VT-XRPD (N2 drying, heating, cooling back): form change; settings: for Form change after treatment: Heat to 165~170° C. under N2, XRPD form; for Form after heating: solid form by XRPD after heating, cells marked *, # have footnotes that are not shown; for form change after N2 drying (VT-XRPD): N2-drying for 20 min at 30° C.
From the text: (§1) For XRPD analysis, a PANalytical Empyrean and X′ Pert3 X-ray powder diffract meter was used.

[2] = Approximate solubility estimated by stepwise solvent addition (RT and 50° C.)
Method: Approximate solubility values of sulfate Type A (824511-04-A) were estimated in 10 solvents to guide the solvent selection in the polymorph screening, with results summarized in TABLE 16B.
Approximate solubility of oxalate Type B (824511-04-C) was estimated in 10 solvents to guide the solvent selection in polymorph screening of oxalate, and the results were summarized in TABLE 19C.
Procedure: weigh ~2 mg solids into each 3-mL glass vial, add in corresponding solvent stepwise and sonicate or oscillate to see if solids dissolved completely. Stop adding solvent till the solids dissolves or total volume reaches 1.0 mL. Calculate the approximate solubility based on solvent volume.
The approximate solubility of mesylate Type A (824511-23-B) was estimated in 10 solvents to guide the solvent selection in polymorph screening of the mesylate, with results summarized in TABLE 22C.
Approximate solubility of HBr salt Type A (824511-29-B) was estimated in 10 solvents to guide the solvent selection in polymorph screening of HBr salt, with data summarized in TABLE 25B.
Approximate solubility of tosylate Type B (824511-23-A-0628) was estimated in 40 solvents to guide the solvent selection in polymorph screening of tosylate, with data summarized in TABLE 27B.
Approximate solubility of besylate Type B (824511-44-C2) was estimated in 38 solvents to guide the solvent selection in polymorph screening of besylate, with results shown in TABLE 31.

[3] = Physical form stability on storage at RT, air drying or exposure to ambient conditions (XRPD)
From the text: as §1

[4] = approximate solubility in CHCl3 at RT
[5] = approximate solubility in EtOAc at RT
[6] = approximate solubility in H2O at RT
[7] = approximate solubility in MeOH at RT
[8] = approximate solubility in THF at RT
[9] = approximate solubility in n-Heptane at RT
[10] = heating to 80° C. and cooling back to RT

For `COCC[C@H]1CC2CN3CCc4c([nH]c5ccccc45)[C@](C(=O)OC)(C2)[C@H]13` [HBr salt Type A, 18-methoxycoronaridine], the “form change after drying or heating (VT-XRPD)” value ([1]; drying or heating under N2 to higher temperatures and cooling back to RT) was “no form change”, the “Solubility (mg/mL)” value ([2]; approximate solubility in ACN at RT) was “S<2.1 * mg/mL” and the “Solubility (mg/mL)” value [2, 4] was “S<2.1 * mg/mL”. For the same compound, the “Solubility (mg/mL)” value ([2]; approximate solubility in DCM at RT) was “S<2.1 * mg/mL”, the “Solubility (mg/mL)” value [2, 5] was “S<2.1 mg/mL” and the “Solubility (mg/mL)” value [2, 6] was “S<2.1 mg/mL”. For the same compound, the “Solubility (mg/mL)” value [2, 7] was “S>42.0 mg/mL”, the “Solubility (mg/mL)” value [2, 8] was “S<2.0 mg/mL” and the “Solubility (mg/mL)” value [2, 9] was “S<2.0 mg/mL”.

With `COCC[C@H]1CC2CN3CCc4c([nH]c5ccccc45)[C@](C(=O)OC)(C2)[C@H]13` [HBr salt Type B, 18-methoxycoronaridine] the “form conversion, summary statement” value ([3]; after storage or heating experiments) was “could convert to HBr salt Type A”, the “Form change on storage” value ([3]; storage at RT for ~20 days) was “*: Partially converted to HBr salt Type A after storage at RT for ~20 days” and the “form change after storage (XRPD)” value ([3]; storage at RT for ~20 days) was “partially converted to HBr salt anhydrate Type A”.

In the case of `COCC[C@H]1CC2CN3CCc4c([nH]c5ccccc45)[C@](C(=O)OC)(C2)[C@H]13` [HCl salt Type A+L, 18-methoxycoronaridine], the “form change after storage (XRPD)” value ([3]; storage at RT for ~22 days) is reported as “converted to HCl salt Type A completely”.

With `COCC[C@H]1CC2CN3CCc4c([nH]c5ccccc45)[C@](C(=O)OC)(C2)[C@H]13` [HCl salt Type F, 18-methoxycoronaridine] the “Form change after treatment” value [1] was “HCl salt Type K*” and the Form after heating [1] was “HCl salt Type K^#”.

With `COCC[C@H]1CC2CN3CCc4c([nH]c5ccccc45)[C@](C(=O)OC)(C2)[C@H]13` [HCl salt Type H, 18-methoxycoronaridine] the “Form change after treatment” value [1] was “Freebase Type A+extra peak*” and the Form after heating [1] was “Freebase Type A+extra peak”.

With `COCC[C@H]1CC2CN3CCc4c([nH]c5ccccc45)[C@](C(=O)OC)(C2)[C@H]13` [besylate Type A, 18-methoxycoronaridine] the “form change after heating (XRPD/VT-XRPD)” value ([1]; heating to 100° C.) was “a new form was observed and assigned as besylate Type C”.

In the case of `COCCC1CC2CN3CCc4c([nH]c5ccccc45)C(C(=O)OC)(C2)C13.O=S(=O)(O)c1ccccc1` (stereo not shown) [besylate Type B (824511-44-C2)], the Approximate solubility ([2]; 50° C., solvent 2-MeTHF, *: little solids in the vial) is reported as “S<1.9* mg/mL”, the Approximate solubility ([2]; 50° C., solvent Toluene) is reported as “S<1.9 mg/mL” and the Approximate solubility ([2]; 50° C., solvent n-Heptane) is reported as “S<2.0 mg/mL”. For the same compound, the Approximate solubility ([2]; RT, solvent 2-MeTHF) was “S<1.9 mg/mL”, the Approximate solubility ([2]; RT, solvent ACN) was “S>40.0 mg/mL” and the Approximate solubility ([2]; RT, solvent ACN/H2O (1:2, aw 0.9), *: little solids in the vial) was “S<1.9* mg/mL”. The Approximate solubility ([2]; RT, solvent CHCl3) was “S>40.0 mg/mL”, the Approximate solubility ([2]; RT, solvent DCM) was “S>40.0 mg/mL” and the Approximate solubility ([2]; RT, solvent EtOAc) was “S<2.0 mg/mL”. The Approximate solubility ([2]; RT, solvent H2O) was “S<2.0 mg/mL”, the Approximate solubility ([2]; RT, solvent IPA/H2O (847:153, aw 0.8)) was “S>40.0 mg/mL” and the Approximate solubility ([2]; RT, solvent MeOH) was “S>44.0 mg/mL”. The Approximate solubility ([2]; RT, solvent THF/H2O (87:13, aW 0.8)) was “S>42.0 mg/mL”, the Approximate solubility ([2]; RT, solvent THF/H2O (981:19, aw 0.2)) was “S>40.0 mg/mL” and the Approximate solubility ([2]; RT, solvent n-Heptane) was “S<2.0 mg/mL”.

In the case of `COCC[C@H]1CC2CN3CCc4c([nH]c5ccccc45)[C@](C(=O)OC)(C2)[C@H]13` [besylate Type B, 18-methoxycoronaridine], the “form change after N2 drying (VT-XRPD)” value [1] is reported as “no obvious form change” and the “form change after heating (XRPD/VT-XRPD)” value ([1]; heating to 100° C.) is reported as “no obvious form change”.

In the case of `COCC[C@H]1CC2CN3CCc4c([nH]c5ccccc45)[C@](C(=O)OC)(C2)[C@H]13` [mesylate Type A, 18-methoxycoronaridine], the “form change after N2 drying (VT-XRPD)” value [1] is reported as “no form change”, the “form change after heating (XRPD/VT-XRPD)” value ([1]; heating to 100° C.) is reported as “no obvious form change” and the “Solubility (mg/mL)” value ([2]; approximate solubility in Acetone at RT) is reported as “S<2.3 mg/mL”. The “Solubility (mg/mL)” value [2, 4] was “S>42.0* mg/mL”, the “Solubility (mg/mL)” value [2, 5] was “S<2.2 mg/mL” and the “Solubility (mg/mL)” value [2, 6] was “S>42.0* mg/mL”. For the same compound, the “Solubility (mg/mL)” value [2, 7] was “S>40.0 mg/mL”, the “Solubility (mg/mL)” value [2, 8] was “S<2.0 mg/mL” and the “Solubility (mg/mL)” value [2, 9] was “S<2.0 mg/mL”.

In the case of `COCC[C@H]1CC2CN3CCc4c([nH]c5ccccc45)[C@](C(=O)OC)(C2)[C@H]13` [oxalate Type B, 18-methoxycoronaridine], the “Solubility (mg/mL)” value [2, 5] is reported as “S<1.8 mg/mL”, the “Solubility (mg/mL)” value [2, 6] is reported as “S>38.0 mg/mL” and the “Solubility (mg/mL)” value [2, 7] is reported as “S>44.0 mg/mL”. The “Solubility (mg/mL)” value [2, 9] was “S<2.1 mg/mL”.

With `COCC[C@H]1CC2CN3CCc4c([nH]c5ccccc45)[C@](C(=O)OC)(C2)[C@H]13` [sulfate Type A, 18-methoxycoronaridine] the “form change after N2 drying (VT-XRPD)” value [1] was “no obvious form change”, the “form change after heating (XRPD/VT-XRPD)” value ([1]; heating to 120° C.) was “no obvious form change” and the “Solubility (mg/mL)” value ([2]; CHCl3, RT, approximate) was “S<1.9 mg/mL”. The “Solubility (mg/mL)” value ([2]; DCM, RT, approximate) was “S<2.1 mg/mL”, the “Solubility (mg/mL)” value ([2]; EtOAc, RT, approximate) was “S<2.0 mg/mL” and the “Solubility (mg/mL)” value ([2]; MeOH, RT, approximate) was “S>44.0 mg/mL”. For the same compound, the “Solubility (mg/mL)” value ([2]; THF, RT, approximate) was “S<1.9 mg/mL”, the “Solubility (mg/mL)” value ([2]; Toluene, RT, approximate) was “S<2.2 mg/mL” and the “Solubility (mg/mL)” value ([2]; n-Heptane, RT, approximate) was “S<1.8 mg/mL”.

For `COCC[C@H]1CC2CN3CCc4c([nH]c5ccccc45)[C@](C(=O)OC)(C2)[C@H]13` [sulfate Type D, 18-methoxycoronaridine], the “form change after N2 drying (VT-XRPD)” value [1] was “a new form was observed and assigned as sulfate Type F”.

For `COCC[C@H]1CC2CN3CCc4c([nH]c5ccccc45)[C@](C(=O)OC)(C2)[C@H]13` [sulfate Type E, 18-methoxycoronaridine], the “form change after heating (XRPD/VT-XRPD)” value ([1]; heating to 100° C.) was “no form change”.

With `COCC[C@H]1CC2CN3CCc4c([nH]c5ccccc45)[C@](C(=O)OC)(C2)[C@H]13` [tosylate Type B, 18-methoxycoronaridine] the Approximate solubility ([2]; 50° C., 1,4-Dioxane/n-heptane (1:2) v:v) was “S<1.9 mg/mL”, the Approximate solubility ([2]; 50° C., IPAc) was “S<2.2 mg/mL” and the Approximate solubility ([2]; 50° C., MTBE) was “S<2.1 mg/mL”. The Approximate solubility ([2]; 50° C., Toluene) was “S<1.9 mg/mL”, the Approximate solubility ([2]; 50° C., n-Heptane) was “S<2.0 mg/mL” and the Approximate solubility ([2]; RT, 2-MeTHF) was “S<2.1 mg/mL”. For the same compound, the Approximate solubility ([2]; RT, ACN/toluene (4:1) v:v) was “S>42.0 mg/mL”, the Approximate solubility ([2]; RT, Acetone/n-heptane (4:1) v:v) was “S<2.0 mg/mL” and the Approximate solubility ([2]; RT, CHCl3) was “S>40.0 mg/mL”. For the same compound, the Approximate solubility ([2]; RT, CHCl3/toluene (1:4) v:v) was “S<1.9 mg/mL”, the Approximate solubility ([2]; RT, EtOAc, little solid in the vial) was “S<2.1^& mg/mL” and the Approximate solubility ([2]; RT, EtOH) was “S>40.0 mg/mL”. For the same compound, the Approximate solubility ([2]; RT, EtOH/n-hexane (3:1) v:v) was “S>42.0 mg/mL”, the Approximate solubility ([2]; RT, H2O) was “S<2.0 mg/mL” and the Approximate solubility ([2]; RT, MeOH) was “S>44.0 mg/mL”. The Approximate solubility ([2]; RT, THF/H2O (87:13) v:v) was “S>42.0 mg/mL” and the Approximate solubility ([2]; RT, n-Heptane) was “S<2.0 mg/mL”.

With `COCC[C@H]1CC2CN3CCc4c([nH]c5ccccc45)[C@](C(=O)OC)(C2)[C@H]13` [tosylate Type E, 18-methoxycoronaridine] the “form change after heating (XRPD)” value [1, 10] was “no form change” and the “form change after heating (XRPD)” value ([1]; heating to 101° C. and cooling back to RT) was “a sample with weak crystallinity and similar to tosylate Type B was obtained”.

With `COCC[C@H]1CC2CN3CCc4c([nH]c5ccccc45)[C@](C(=O)OC)(C2)[C@H]13` [tosylate Type F, 18-methoxycoronaridine] the “form change after heating (XRPD)” value ([1]; heating to 90° C.) was “form change to tosylate Type B”.

With `COCC[C@H]1CC2CN3CCc4c([nH]c5ccccc45)[C@](C(=O)OC)(C2)[C@H]13` [tosylate Type G, 18-methoxycoronaridine] the “form change after heating (XRPD)” value [1, 10] was “no form change”, the “form change after heating (XRPD)” value ([1]; heating to 90° C.) was “crystallinity of the sample decreased significantly” and the “form change after heating (XRPD/VT-XRPD)” value ([1]; heating to 100° C.) was “amorphous was obtained”.

Reference: patent publication US20230303572A1, “18-MC SALT FORMS” (Mind Medicine, Inc., priority 2022, published 2023)
